Test results: patent publication US20090075313A1, “Split protein fragments, split protein systems, methods of making split protein systems, and methods of using split protein systems” (Stanford University, priority 2007, published 2009)
Where two headings read alike, the source gives them in different places.

What was measured:
[1] = test system: human estrogen receptor ligand-binding domain (hER-LBD); assay: intramolecular protein folding sensor (split TK fragments flanking ER-LBD), TK enzyme uptake in 293T cells; format: cell-based
Experimental: FIG. 2b illustrates a schematic diagram of the intramolecular folding sensor construct with the split TK fragments on either side of the estrogen receptor ligand binding domain (ER-LBD), and each construct was made by cloning into a pcDNA3.1 (+) plasmid backbone, under control of a CMV promoter. […] The error bar is the standard error of the mean for three samples.
All experiments were conducted with comparison to a positive control derived from the activity of intact TK, and a mock transfection acting as a negative control.

[2] = test system: 293T cells stably expressing nTK(V119C)-FRB plus FKBP12-cTK; assay: microPET imaging with [18F]-FHBG of subcutaneous 293T xenografts in living mice; format: in vivo
Source text: The signal from each implant was quantified directly from the microPET images to determine the % ID/g for the FHBG probe. […] The animals were repeatedly imaged on day 1 (before rapamycin), day 2 (one dose post rapamycin) and day 5 (3 doses post rapamycin) of this imaging protocol, i.e. after 1 week of initial xenograft growth. […] In another group of 4 mice, xenografts expressing nTK(V119C)-FRB plus FKBP12-cTK were compared with control implants stably expressing nTK plus cTK only (also in a single vector).
All animal handling and care was performed in accordance with Stanford University Animal Research Committee guidelines. […] The cells were allowed to grow as tumors for 7 days (to ˜0.3-0.4 cm in diameter). On day 8 mice were tail vein injected with 200 μCi of [^18F]-FHBG after undergoing anesthesia with 2% isoflurane in oxygen at 2 L/min. Three hours later, mice were microPET imaged in a spread prone position in a FOCUS microPET scanner (Concorde Microsystems, Knoxville, Tenn.). […] Immediately after imaging the animals were intraperitoneally injected with 50 μg of rapamycin; 24 h later all the animals were re-subjected to microPET imaging as mentioned above. The animals were further injected with intraperitoneal 50 μg rapamycin for two more days at 24 h intervals and subjected to repeat microPET imaging. In a separate cohort of 4 control mice, the above temporal imaging studies were performed in an identical fashion except that no rapamycin was administered. […] This % ID/g is a measure of the amount of tracer accumulated in a given tissue site normalized to the injected amount and to the mass of the tissue examined. […] For statistical analysis, the 2-tailed Student t-test was used. Differences were considered significant at P<0.05.

FM (F36M) mutant FKBP12 = FM (F36M) mutant FKBP12 (Homo sapiens, UniProt P62942, F37M)
Source text: (§1) Twenty-four hours later we added FK506 to these cells and, using an in vitro [8-^3H]Penciclovir cell uptake assay, measured either the time- or dose-dependent changes in homodimer dissociation and consequent diminished TK complementation.
as §1

FKBP12 = FKBP12 (Homo sapiens, UniProt P62942); settings: stable 293T cells, with 40 nM rapamycin, 36 h
cells = settings: 40 nM of rapamycin per well; cited from earlier work
HSV1-sr39TK = HSV1-sr39TK (Human herpesvirus 1, UniProt Q9QNF7, A168F/F161L/I160F/L159I/L169M); assay: self-complementation of split TK fragments without attached proteins, TK enzyme uptake in 293T cells; format: cell-based, herpes simplex virus type 1
Source text: To confirm or refute this finding we performed a separate PCA study using another pair of known interacting proteins, after replacing FRB and FKBP12 with Id and MyoD respectively (FIG. 2a, and FIG. 12). […] We tested the interaction of Id and MyoD upon transient co-expression of the fusion proteins nTK-Id and MyoD-cTK in 293T cells, followed by an in vitro TK enzyme cellular uptake assay to detect dimerization-assisted complementation of the TK fragments. Again, this same orientation of chimeras using Id and MyoD was used previously in PCAs with split Firefly luciferase and Renilla luciferase. We compared this with complementation obtained using the previous chimeras containing FRB and FKBP12, before and after addition of rapamycin. As negative controls we also assayed for TK activity upon single- and co-expression of nTK and cTK fragments without any attached proteins to check whether any measured TK activity might originate in either the N-terminal or C-terminal fragments of TK alone, or perhaps by their spontaneous self-complementation even without attached proteins. The results, shown in FIG. 12, confirmed the findings described above using the FRB/FKBP12/rapamycin system (FIGS. 9, 10, 12).

FKBP12-cTK = FKBP12-cTK (human; herpes simplex virus type 1, UniProt P62942 1-108); assay: cell-based or functional assay
[3] = 293T cells, 24 h treatment, P<0.05

FM (F36M) mutant FKBP12, sequence (P62942 whole entry F37M): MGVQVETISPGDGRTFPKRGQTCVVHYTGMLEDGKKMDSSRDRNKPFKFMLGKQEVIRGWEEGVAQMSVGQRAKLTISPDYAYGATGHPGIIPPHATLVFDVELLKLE
FKBP12, sequence (P62942 whole entry, added parts left off): as the sequence (P62942 whole entry F37M) above, with M37F counted along it

**Q.** For 4-hydroxytamoxifen [4-OHT], which “level of intramolecular-folding-assisted complementation versus carrier control-treated cells” value [1] is on record?
**A.** Its value is “significantly higher”.

**Q.** What does the source list for `Nc1nc2c(ncn2CCC(CO)C[18F])c(=O)[nH]1` (stereo not shown) [FHBG, 9-(4-[^18F]-fluoro-3-hydroxymethylbutyl)-guanine]?
**A.** probe % ID/g in shoulder tumors ([2]; animals imaged in the prone position): 1.02 % ID/g; probe % ID/g in shoulder tumors ([2]; animals imaged in the supine position): 0.89 % ID/g; FHBG accumulation in control tumors ([2]; control implants stably expressing nTK plus cTK only, fifth day, with rapamycin): minimal; mean % ID/g for FHBG accumulation, background ([2]; mock transfected cells): 0.28±0.10 % ID/g; mean % ID/g for FHBG accumulation ([2]; tumor of cells transfected with nTK(V119C)-FRB plus FKBP12-cTK, after 5 days of daily rapamycin): 4.37±1.74 % ID/g

**Q.** For `Cc1c(-c2ccc(O)cc2)nn(-c2ccc(O)cc2)c1-c1ccc(OCCN2CCCCC2)cc1` [MPP, methyl piperidinylethoxy pyrazole], which “level of intramolecular-folding-assisted complementation versus carrier control-treated cells” value [1, 3] is on record?
**A.** Its value is “significantly higher”.

**Q.** With `CCCc1c(-c2ccc(O)cc2)nn(-c2ccc(O)cc2)c1-c1ccc(O)cc1` [PPT, 1,3,5-tris(4-hydroxyphenyl)-4-propyl-1H-pyrazole] as the molecule, how does the “level of intramolecular-folding-assisted complementation versus carrier control-treated cells” value [1, 3] read?
**A.** The value was “significantly higher”.

**Q.** Which “dissociation of complexes (fraction)” value (FM (F36M) mutant FKBP12; Five μM FK506, within 30 min) does the source give for `CC[C@@H]1/C=C(\C)C[C@H](C)C[C@H](OC)[C@H]2O[C@@](O)(C(=O)C(=O)N3CCCC[C@H]3C(=O)O[C@H](/C(C)=C/[C@@H]3CC[C@@H](O)[C@H](OC)C3)[C@H](C)[C@@H](O)CC1=O)[C@H](C)C[C@@H]2OC` [ascomycin] here?
**A.** The value was “about two-thirds”.

**Q.** What about the “change of TK activity with increasing doses” value (FM (F36M) mutant FKBP12; up to 5 μM, after 24 hr of exposure) of the same molecule?
**A.** The value was “incremental reduction of TK activity”.

**Q.** What about the “effect of increasing concentration on TK complementation” value (FKBP12) of the same molecule?
**A.** The value was “reduction in TK complementation”.

**Q.** What about the “smallest concentration required to initiate the competitive inhibition of rapamycin” value (FKBP12; 0 to 16 μM) of the same molecule?
**A.** The value was 0.5 µM.

**Q.** For `CO[C@H]1C[C@@H]2CC[C@@H](C)[C@@](O)(O2)C(=O)C(=O)N2CCCC[C@H]2C(=O)O[C@H]([C@H](C)C[C@@H]2CC[C@@H](O)[C@H](OC)C2)CC(=O)[C@H](C)/C=C(\C)[C@@H](O)[C@@H](OC)C(=O)[C@H](C)C[C@H](C)/C=C/C=C/C=C/1C` [rapamycin], which toxicity to cells (cells) is on record?
**A.** The toxicity to cells was “non-toxic”.

B1: nTK: N-terminal TK fragment comprising the amino acids Met-1 to Thr-265 (protein)
chain: MASYPCHQHASAFDQAARSRGHSNRRTALRPRRQQEATEVRLEQKMPTLLRVYIDGPHGMGKTTTTQLLVALGSRDDIVYVPEPMTYWRVLGASETIANIYTTQHRLDQGEISAGDAAVVMTSAQITMGMPYAVTDAVLAPHIGGEAGSSHAPPPALTLIFDRHPIAALLCYPAARYLMGSMTPQAVLAFVALIPPTLPGTNIVLGALPEDRHIDRLAKRQRPGERLDLAMLAAIRRVYGLLANTVRYLQCGGSWREDWGQLSGT
**Q.** With B1 as the molecule, how does the “TK activity upon single- or co-expression of fragments without attached proteins” value (HSV1-sr39TK) read?
**A.** The value was “no activity”.

B2: nTK-FRB (other)
chain: MASYPCHQHASAFDQAARSRGHSNRRTALRPRRQQEATEVRLEQKMPTLLRVYIDGPHGMGKTTTTQLLVALGSRDDIVYVPEPMTYWRVLGASETIANIYTTQHRLDQGEISAGDAAVVMTSAQITMGMPYAVTDAVLAPHIGGEAGSSHAPPPALTLIFDRHPIAALLCYPAARYLMGSMTPQAVLAFVALIPPTLPGTNIVLGALPEDRHIDRLAKRQRPGERLDLAMLAAIRRVYGLLANTVRYLQCGGSWREDWGQLSGTGGGGSILWHEMWHEGLEEASRLYFGERNVKGMFEVLEPLHAMMERGPQTLKETSFNQAYGRDLMEAQEWCRKYMKSGNVKDLTQAWDLYYHVFRRISK
**Q.** Which “complemented TK activity in the absence of rapamycin, against mock transfection, 293T cells” value (FKBP12-cTK) does the source give for B2 here?
**A.** Its value is 2.3 fold above mock transfection levels.

**Q.** What about the “relative gain in complemented TK activity after rapamycin administration, 293T cells” value (FKBP12-cTK) of the same molecule?
**A.** Its value is ~3 fold induction.

**Q.** And the “split TK complementation in SKBr3 human breast cancer cells, with rapamycin” value (FKBP12-cTK)?
**A.** The value was ~3 fold rise.

**Q.** And the “split TK complementation in SKOV3 human ovarian cancer cells, with rapamycin” value (FKBP12-cTK)?
**A.** Its value is ~3 fold rise.

B3: cTK: C-terminal TK fragment comprising the amino acids Ala-266 to Asn-376 (protein)
chain: AVTPQGAEPQSNAGPRPHIGETLFTLFRAPELLAPNGDLYNVFAWALDVLAKRLRPMHVFILDYDQSPAGCRDALLQLTSGMVQTHVTTPGSIPTICDLARTFAREMGEAH
**Q.** For B3, which “TK activity upon single- or co-expression of fragments without attached proteins” value (HSV1-sr39TK) is on record?
**A.** The value was “no activity”.
